Laboratory results taken from ChEMBL document CHEMBL1201862, “PubChem BioAssay data set” (2004).
Calls of active or inactive are those of the source.

Assays:
Beta-galactosidase = Beta-galactosidase (Escherichia coli, UniProt Q8VNN2); test: Dose response counterscreen for EBI2 assay utilizing the enzyme, b-galactosidase.; type: functional
[1] = target: Potassium channel subfamily K member 9 (Homo sapiens, UniProt Q9NPC2); test: TASK3 (KCNK9) channel inhibitors, thallium flux, SAR follow-up, selectivity assay for TASK1 inhibitor project, cell-based, FluxOR thallium flux, concentration-response (AID 652211); type: functional;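 note: potency is for inhibitors of the channel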
[2] = target: T1, Methionyl-tRNA synthetase, putative (Trypanosoma brucei brucei, UniProt Q38C91); type: functional, Trypanosoma brucei brucei strain 927/4 GUTat10.1
T1 sequence (Q38C91 whole entry): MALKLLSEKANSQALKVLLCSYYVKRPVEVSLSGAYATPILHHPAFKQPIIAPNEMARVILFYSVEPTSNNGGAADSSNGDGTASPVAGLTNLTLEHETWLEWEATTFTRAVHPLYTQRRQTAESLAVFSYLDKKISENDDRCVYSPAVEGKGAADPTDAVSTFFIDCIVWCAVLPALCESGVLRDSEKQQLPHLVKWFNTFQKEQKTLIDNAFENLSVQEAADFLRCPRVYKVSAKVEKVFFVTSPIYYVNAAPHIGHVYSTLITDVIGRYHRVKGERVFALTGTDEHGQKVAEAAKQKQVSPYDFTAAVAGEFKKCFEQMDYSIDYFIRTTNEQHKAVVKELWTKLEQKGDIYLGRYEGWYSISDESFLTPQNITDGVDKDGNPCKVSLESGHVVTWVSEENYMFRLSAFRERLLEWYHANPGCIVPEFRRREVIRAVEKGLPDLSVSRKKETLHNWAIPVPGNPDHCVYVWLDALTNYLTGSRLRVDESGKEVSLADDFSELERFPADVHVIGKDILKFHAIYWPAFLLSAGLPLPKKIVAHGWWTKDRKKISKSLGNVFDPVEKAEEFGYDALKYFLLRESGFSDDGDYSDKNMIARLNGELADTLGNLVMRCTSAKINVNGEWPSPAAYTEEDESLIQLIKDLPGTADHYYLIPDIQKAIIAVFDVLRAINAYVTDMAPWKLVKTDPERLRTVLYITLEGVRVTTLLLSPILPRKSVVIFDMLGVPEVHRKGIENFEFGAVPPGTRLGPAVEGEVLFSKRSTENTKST

[3] = Counterscreen for inhibitors of Trypanosoma brucei methionyl tRNA synthetase (MetRS): Luminescence-based cell-based high throughput dose response assay to identify compounds that are cytotoxic to Jurkat human T lymphocyte cells.; type: functional
[4] = target: T1, Methionyl-tRNA synthetase, putative; type: functional, Trypanosoma brucei brucei strain 927/4 GUTat10.1; remark: listed apart in the source
[5] = Late stage counterscreen for inhibitors of Trypanosoma brucei methionyl tRNA synthetase (MetRS): Luminescence-based cell-based high throughput dose response assay to identify compounds that are cytotoxic to Jurkat human T lymphocyte cells.; type: functional
[6] = target: Matrix metalloproteinase-14 (Homo sapiens, UniProt P50281); test: Dose Response confirmation of uHTS hits for a small molecule inhibitors of MT1-MMP activation in a fluorescence assay set 1.; type: functional
[7] = growth suppression of PTEN-null colon cells, dose response, cell-based, HCT116 PTEN knockout (AID 1047); type: functional;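 note: HCT116 colon tumor cells with PTEN knocked out; cells exposed to compound for 60 hours before readout; potency for loss of cell viability measured by luminescence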
[8] = growth suppression of beta-catenin-knockout colon cells, dose response, cell-based, HCT116, human colon tumor (AID 1045); type: functional;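 note: HCT116 colon tumor cells with beta catenin knocked out; cells exposed to compound for 60 hours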
[9] = target: T2, Mannose-6-phosphate isomerase (Homo sapiens, UniProt P34949); test: human PMI inhibitors, high substrate, primary screen, biochemical, fluorescence intensity, high mannose 6-phosphate (AID 1220)
T2 sequence (P34949 whole entry): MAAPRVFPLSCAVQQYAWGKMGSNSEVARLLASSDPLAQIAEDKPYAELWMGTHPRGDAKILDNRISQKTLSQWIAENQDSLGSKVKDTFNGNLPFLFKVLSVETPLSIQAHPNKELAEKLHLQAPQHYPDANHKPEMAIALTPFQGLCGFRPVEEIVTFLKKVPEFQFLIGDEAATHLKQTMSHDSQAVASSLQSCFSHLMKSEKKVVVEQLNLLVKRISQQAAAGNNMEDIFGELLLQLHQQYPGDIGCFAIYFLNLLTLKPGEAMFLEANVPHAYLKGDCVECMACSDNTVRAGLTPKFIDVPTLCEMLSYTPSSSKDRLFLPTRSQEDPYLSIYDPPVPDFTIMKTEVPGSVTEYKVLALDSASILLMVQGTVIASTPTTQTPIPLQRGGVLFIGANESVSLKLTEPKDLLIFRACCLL

[10] = target: Heat shock protein HSP 90-alpha (Homo sapiens, UniProt P07900); type: functional, organism-based
INS1 = test: beta cell apoptosis inhibitors, cytokine rescue, dose response, luminescence, retest (AID 449756); type: functional, cell-based; conditions: Rattus norvegicus, INS1;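 note: cell death triggered by IL-1 beta plus TNF-alpha plus IFN-gamma mixture; protective hits raise ATP signal compared with cytokine alone wells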
[11] = Fluorescence-based cell-based high throughput dose response assay for inhibitors of the interaction of nucleotide-binding oligomerization domain containing 2 (NOD2) and the receptor-interacting serine-threonine kinase 2 (RIPK2).; type: functional; conditions: Homo sapiens
Beta Lactamase = Beta Lactamase (Pseudomonas aeruginosa, UniProt Q932Y6); test: beta-lactamase reporter inhibitor potency, dose response, artefact control for NOD2-RIPK2 interaction inhibitor project, BLA reporter cells, FRET fluorescence (AID 651552); type: functional, cell-based
Mu-type opioid receptor = Mu-type opioid receptor (Homo sapiens, UniProt P35372); type: functional, cell-based;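 note: U2OS cells with beta-arrestin recruitment to OPRM1 by beta-gal complementation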
[12] = target: 5-hydroxytryptamine receptor 2A (Mus musculus, UniProt P35363); type: functional, cell-based;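 note: CHO-K1 cells with tagged receptor and beta-arrestin; agonist potency measured as compound-induced activation of the receptor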
[13] = target: Long-chain-fatty-acid--AMP ligase FadD28 (Mycobacterium tuberculosis, UniProt P9WQ59); test: Fluorescence polarization aasay to screen for inhibitors that compete for the binding of FadD28 to a bisubstrate Measured in Biochemical System Using Plate Reader - 2147-01_Inhibitor_Dose_CherryPick_Activity.; type: functional, Mycobacterium tuberculosis H37Rv
Vero = test: Vero cell toxicity, dose response, cytotoxicity control, plate reader, cherry-pick samples (AID 687020); type: functional, cell-based; conditions: Chlorocebus sabaeus
[14] = target: DNA repair and recombination protein RAD54-like (Homo sapiens, UniProt Q92698); test: inhibitors of human RAD54 branch migration, confirmation, biochemical, fluorescence, cherry-picked samples, dose series (AID 651657); type: functional
[15] = target: T3, Histone-lysine N-methyltransferase NSD2 (Homo sapiens, UniProt O96028); type: biochemical
T3 sequence (O96028 whole entry): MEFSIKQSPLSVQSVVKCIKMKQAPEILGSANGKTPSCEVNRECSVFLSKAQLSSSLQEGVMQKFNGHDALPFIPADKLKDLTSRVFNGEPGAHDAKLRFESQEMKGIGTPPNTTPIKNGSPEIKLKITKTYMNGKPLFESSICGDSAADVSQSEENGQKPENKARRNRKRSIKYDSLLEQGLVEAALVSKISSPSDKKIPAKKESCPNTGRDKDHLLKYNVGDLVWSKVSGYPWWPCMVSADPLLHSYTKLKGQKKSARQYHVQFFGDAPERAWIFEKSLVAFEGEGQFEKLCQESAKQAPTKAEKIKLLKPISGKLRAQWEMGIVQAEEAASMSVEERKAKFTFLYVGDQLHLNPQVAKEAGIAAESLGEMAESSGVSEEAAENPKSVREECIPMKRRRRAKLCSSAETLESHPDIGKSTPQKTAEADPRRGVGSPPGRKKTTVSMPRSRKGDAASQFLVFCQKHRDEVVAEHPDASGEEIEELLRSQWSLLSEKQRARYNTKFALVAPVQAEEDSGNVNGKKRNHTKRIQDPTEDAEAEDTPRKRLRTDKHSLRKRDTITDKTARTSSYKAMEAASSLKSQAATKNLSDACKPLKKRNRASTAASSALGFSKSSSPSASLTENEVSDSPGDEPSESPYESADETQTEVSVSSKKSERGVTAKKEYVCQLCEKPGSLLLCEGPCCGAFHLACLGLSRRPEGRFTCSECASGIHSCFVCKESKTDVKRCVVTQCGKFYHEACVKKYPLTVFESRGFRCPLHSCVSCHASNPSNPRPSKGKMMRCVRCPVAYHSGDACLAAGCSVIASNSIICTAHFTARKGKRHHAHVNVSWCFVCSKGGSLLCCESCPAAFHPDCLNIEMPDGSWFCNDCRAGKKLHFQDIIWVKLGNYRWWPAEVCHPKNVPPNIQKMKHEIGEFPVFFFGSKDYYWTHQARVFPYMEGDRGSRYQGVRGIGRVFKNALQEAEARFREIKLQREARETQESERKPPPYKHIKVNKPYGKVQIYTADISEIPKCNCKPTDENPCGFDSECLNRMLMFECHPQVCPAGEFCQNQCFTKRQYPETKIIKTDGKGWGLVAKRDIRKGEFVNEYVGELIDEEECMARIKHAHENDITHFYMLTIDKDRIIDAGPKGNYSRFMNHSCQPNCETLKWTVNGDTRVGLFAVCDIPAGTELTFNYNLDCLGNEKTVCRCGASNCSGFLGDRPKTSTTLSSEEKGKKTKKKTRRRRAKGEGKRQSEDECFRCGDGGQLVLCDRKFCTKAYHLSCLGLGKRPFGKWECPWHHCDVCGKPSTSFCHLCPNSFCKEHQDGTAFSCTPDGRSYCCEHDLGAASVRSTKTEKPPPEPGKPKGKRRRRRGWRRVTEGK

HEK293 [16] = test: NOD1 signaling inhibitors, primary screen, cell-based, luminescence, uHTS (AID 1578); type: functional; conditions: Homo sapiens
HEK293 [17] = test: cells; type: functional, cell-based; conditions: Homo sapiens
HEK293 [18] = test: cells; type: functional, cell-based; conditions: Homo sapiens; remark: listed apart in the source
HEK293 [19] = test: NOD2 signaling inhibitors in MDP-stimulated cells, cell-based, uHTS, luminescence (AID 2001); type: functional; conditions: Homo sapiens
[20] = target: ADP-ribosylation factor GTPase-activating protein 1 (Rattus norvegicus, UniProt Q62848); test: Fluorescence polarization-based biochemical high throughput dose response screening assay to identify inhibitors of ADP-ribosylation factor GTPase activating protein 1 (ARFGAP1).; type: functional
[21] = target: Arf-GAP with SH3 domain, ANK repeat and PH domain-containing protein 1 (Homo sapiens, UniProt Q9ULH1); type: functional;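 note: biochemical fluorescence polarization dose–response screen measuring inhibition of ASAP1; ASAP1 GAP domain stimulating GTP hydrolysis by truncated human ARF1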
Galanin receptor type 3 = Galanin receptor type 3 (Homo sapiens, UniProt O60755); test: Fluorescence-based cell-based primary high throughput dose response assay to identify antagonists of the Galanin Receptor 3 (GalR3).; type: functional
cells = type: functional, cell-based; conditions: HEK-CNG
[22] = Counterscreen for […] of the human trace amine associated receptor 1 (TAAR1): Fluorescence-based cell-based high throughput dose response assay to identify nonselective Ga16 agonists.; type: functional
[23] = target: T4, Trace amine-associated receptor 1 (Homo sapiens, UniProt Q96RJ0); test: Fluorescence-based cell-based high throughput dose response assay to identify antagonists of the human trace amine associated receptor 1 (TAAR1).; type: functional
T4 sequence (Q96RJ0 whole entry): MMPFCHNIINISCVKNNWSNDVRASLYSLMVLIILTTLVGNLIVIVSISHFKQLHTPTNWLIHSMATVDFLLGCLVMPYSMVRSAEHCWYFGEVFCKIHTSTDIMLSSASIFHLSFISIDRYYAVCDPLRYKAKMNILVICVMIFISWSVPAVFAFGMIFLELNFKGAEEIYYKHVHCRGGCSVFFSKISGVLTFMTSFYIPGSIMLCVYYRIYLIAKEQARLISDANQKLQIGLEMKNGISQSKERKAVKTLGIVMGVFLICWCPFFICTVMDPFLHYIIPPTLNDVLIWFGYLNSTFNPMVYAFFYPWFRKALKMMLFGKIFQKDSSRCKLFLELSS

[24] = Counterscreen for antagonists of the human trace amine associated receptor 1 (hTAAR1): Fluorescence-based cell-based high throughput dose response assay to identify nonselective Ga16 antagonists.; type: functional
[25] = target: T4, Trace amine-associated receptor 1; test: Counterscreen for antagonists of the human trace amine associated receptor 1 (hTAAR1): Fluorescence-based cell-based high throughput dose response assay to identify TAAR1 Agonists.; type: functional
[26] = target: T5, Beta-2 adrenergic receptor (Homo sapiens, UniProt P07550); test: Dose response for HTS for Beta-2AR agonists via FAP method from Powderset1.; type: functional
[27] = target: T5, Beta-2 adrenergic receptor; test: beta2AR agonists driving receptor internalization, dose response, cell-based, FAP fluorogen, flow cytometry, cherry pick 1 (AID 588763); type: functional

T5 sequence (P07550 whole entry): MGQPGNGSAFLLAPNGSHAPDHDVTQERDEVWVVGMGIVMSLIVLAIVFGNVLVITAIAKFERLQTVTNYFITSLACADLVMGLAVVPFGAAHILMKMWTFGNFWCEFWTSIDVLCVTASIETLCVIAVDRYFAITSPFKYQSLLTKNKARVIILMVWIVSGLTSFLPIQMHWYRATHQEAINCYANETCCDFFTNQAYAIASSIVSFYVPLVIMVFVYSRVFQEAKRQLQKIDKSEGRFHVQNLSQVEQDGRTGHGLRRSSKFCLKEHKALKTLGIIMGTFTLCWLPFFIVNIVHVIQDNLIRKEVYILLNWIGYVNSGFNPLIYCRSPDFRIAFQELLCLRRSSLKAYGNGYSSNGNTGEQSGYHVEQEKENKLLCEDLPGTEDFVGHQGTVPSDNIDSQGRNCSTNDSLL
Chain of Arf-GAP with SH3 domain, ANK repeat and PH domain-containing protein 1 (Q9ULH1 whole entry, the tested form may be a part): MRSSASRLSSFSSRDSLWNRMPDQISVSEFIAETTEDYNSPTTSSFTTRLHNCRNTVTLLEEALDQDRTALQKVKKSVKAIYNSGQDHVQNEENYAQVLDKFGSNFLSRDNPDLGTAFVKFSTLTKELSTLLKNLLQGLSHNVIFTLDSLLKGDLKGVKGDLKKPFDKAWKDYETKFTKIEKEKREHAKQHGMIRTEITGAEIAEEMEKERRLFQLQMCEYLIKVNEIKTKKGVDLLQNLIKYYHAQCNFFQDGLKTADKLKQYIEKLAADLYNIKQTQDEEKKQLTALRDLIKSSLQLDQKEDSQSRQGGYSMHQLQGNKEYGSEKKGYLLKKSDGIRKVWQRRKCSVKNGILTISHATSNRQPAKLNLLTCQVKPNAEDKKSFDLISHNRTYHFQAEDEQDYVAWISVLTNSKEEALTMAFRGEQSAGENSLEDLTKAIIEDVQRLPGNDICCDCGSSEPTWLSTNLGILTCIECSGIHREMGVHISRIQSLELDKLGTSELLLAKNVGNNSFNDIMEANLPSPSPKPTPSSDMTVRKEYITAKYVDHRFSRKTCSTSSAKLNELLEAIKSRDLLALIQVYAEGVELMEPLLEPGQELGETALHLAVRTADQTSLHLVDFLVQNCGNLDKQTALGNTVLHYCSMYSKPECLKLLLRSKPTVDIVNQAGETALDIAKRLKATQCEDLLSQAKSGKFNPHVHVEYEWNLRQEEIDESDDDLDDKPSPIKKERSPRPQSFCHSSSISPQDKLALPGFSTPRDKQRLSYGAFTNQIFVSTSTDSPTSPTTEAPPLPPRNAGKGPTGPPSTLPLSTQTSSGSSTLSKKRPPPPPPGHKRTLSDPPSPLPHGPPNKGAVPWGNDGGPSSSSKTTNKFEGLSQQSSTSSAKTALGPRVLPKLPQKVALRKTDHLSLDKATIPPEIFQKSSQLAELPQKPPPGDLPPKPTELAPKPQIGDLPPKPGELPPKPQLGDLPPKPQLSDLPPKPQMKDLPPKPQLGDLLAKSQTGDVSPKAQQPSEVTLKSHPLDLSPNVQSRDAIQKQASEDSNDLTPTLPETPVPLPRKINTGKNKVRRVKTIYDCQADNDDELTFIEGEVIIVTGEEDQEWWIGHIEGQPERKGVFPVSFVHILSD
Chain of 5-hydroxytryptamine receptor 2A (P35363 whole entry): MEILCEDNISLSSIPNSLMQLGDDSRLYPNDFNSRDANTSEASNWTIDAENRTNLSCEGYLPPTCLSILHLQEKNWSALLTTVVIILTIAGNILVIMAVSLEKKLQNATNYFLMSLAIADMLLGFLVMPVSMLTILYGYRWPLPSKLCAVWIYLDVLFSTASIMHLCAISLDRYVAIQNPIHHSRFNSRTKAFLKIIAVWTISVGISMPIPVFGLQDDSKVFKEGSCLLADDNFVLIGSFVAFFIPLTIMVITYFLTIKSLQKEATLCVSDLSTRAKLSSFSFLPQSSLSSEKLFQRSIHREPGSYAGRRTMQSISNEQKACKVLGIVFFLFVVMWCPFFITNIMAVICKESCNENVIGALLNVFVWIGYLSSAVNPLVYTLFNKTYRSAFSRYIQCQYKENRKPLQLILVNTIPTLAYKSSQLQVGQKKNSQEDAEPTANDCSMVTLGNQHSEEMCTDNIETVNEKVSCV
Chain of Beta-galactosidase (Q8VNN2 whole entry): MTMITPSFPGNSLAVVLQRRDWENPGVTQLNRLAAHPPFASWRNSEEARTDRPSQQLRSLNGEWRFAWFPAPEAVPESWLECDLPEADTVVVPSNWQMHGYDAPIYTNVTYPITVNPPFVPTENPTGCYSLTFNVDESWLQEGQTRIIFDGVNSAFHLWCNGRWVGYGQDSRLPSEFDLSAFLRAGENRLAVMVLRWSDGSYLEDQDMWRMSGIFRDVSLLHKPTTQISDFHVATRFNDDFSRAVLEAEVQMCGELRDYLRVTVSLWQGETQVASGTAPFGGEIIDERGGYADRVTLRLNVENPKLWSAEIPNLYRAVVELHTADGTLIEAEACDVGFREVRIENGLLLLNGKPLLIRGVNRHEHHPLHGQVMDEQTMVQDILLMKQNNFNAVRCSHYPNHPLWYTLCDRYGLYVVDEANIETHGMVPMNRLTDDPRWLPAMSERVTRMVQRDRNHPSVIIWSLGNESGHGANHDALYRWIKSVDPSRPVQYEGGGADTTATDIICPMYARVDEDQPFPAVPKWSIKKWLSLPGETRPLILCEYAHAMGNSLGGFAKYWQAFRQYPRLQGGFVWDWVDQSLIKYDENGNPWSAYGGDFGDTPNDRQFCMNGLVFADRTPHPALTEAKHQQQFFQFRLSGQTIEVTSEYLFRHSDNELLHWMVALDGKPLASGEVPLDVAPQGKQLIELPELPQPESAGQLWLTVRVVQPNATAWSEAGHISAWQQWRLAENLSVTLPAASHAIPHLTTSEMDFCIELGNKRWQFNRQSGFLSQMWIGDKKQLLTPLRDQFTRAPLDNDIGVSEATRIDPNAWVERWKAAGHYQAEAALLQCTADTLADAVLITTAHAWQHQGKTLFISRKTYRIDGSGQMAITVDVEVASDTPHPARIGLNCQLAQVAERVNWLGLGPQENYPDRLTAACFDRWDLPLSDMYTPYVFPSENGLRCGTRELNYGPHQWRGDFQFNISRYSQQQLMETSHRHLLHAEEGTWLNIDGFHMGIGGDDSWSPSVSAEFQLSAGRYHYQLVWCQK
Chain of Long-chain-fatty-acid--AMP ligase FadD28 (P9WQ59 whole entry): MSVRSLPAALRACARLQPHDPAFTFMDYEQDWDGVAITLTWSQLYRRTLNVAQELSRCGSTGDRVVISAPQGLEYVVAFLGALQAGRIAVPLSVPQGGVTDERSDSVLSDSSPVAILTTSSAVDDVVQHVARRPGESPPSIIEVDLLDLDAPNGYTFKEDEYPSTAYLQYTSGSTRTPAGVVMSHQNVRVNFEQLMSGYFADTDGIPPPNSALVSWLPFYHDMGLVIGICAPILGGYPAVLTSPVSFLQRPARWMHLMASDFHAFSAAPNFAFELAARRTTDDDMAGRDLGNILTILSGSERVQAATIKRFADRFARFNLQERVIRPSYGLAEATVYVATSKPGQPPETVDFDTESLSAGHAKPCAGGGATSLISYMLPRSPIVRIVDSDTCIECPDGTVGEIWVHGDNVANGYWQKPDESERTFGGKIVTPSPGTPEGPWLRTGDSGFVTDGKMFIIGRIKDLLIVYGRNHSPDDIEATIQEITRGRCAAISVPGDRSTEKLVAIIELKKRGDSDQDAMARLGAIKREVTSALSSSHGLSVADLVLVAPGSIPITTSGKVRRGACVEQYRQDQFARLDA
Chain of ADP-ribosylation factor GTPase-activating protein 1 (Q62848 whole entry, the tested form may be a part): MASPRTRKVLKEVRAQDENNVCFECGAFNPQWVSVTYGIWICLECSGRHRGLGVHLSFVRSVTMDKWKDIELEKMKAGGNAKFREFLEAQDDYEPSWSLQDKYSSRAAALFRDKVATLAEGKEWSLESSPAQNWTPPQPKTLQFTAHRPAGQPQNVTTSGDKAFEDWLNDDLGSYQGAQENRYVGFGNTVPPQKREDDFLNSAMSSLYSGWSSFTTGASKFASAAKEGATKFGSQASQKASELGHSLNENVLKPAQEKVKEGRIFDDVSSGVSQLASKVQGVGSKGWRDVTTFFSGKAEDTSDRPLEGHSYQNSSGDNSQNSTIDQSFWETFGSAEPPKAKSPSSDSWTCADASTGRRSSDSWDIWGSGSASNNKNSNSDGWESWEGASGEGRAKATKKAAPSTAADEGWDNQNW
Chain of Galanin receptor type 3 (O60755 whole entry): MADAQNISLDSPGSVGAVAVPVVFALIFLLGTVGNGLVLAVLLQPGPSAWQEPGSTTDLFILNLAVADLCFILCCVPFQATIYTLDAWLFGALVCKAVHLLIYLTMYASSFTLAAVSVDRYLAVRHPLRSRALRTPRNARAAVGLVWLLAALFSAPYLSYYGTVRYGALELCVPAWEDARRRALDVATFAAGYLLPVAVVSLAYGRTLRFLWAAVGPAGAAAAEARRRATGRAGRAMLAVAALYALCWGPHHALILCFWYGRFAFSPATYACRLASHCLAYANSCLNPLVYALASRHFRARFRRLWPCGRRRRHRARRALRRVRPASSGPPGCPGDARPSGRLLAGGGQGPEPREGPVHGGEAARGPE
Chain of Mu-type opioid receptor (P35372 whole entry): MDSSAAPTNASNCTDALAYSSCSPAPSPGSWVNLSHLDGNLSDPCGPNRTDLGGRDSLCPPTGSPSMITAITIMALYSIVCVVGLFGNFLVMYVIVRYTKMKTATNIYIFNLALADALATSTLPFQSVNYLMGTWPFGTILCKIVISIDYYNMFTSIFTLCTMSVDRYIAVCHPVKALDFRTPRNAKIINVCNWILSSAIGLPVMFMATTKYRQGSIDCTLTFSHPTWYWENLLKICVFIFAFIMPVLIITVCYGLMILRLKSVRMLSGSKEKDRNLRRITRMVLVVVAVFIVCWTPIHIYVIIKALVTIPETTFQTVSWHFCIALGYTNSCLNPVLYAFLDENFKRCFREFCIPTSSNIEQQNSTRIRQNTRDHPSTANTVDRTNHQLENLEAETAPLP

S=C(NCC1CCCO1)N1CCN(c2nc(-c3ccc(Cl)cc3)cs2)CC1 (centres undefined)
IC50 (Beta-galactosidase): > 80 µM (inactive)

O=C(Nc1cccc(NC(=O)c2ccccn2)c1)c1ccccc1
IC50 [1]: 5.37 µM (active)

C[C@H](O)[C@@H]1C(=O)N2CCc3c([nH]c4ccccc34)[C@@H]2C[C@@H]1N(C)Cc1ccc2c(c1)OCO2
IC50 [2]: 1.34 µM (active) | IC50 [3]: 83.3 µM (inactive) | IC50 [4]: 672 nM (active) | IC50 [5]: > 83.3 µM (inactive)

CNc1c(C(=O)O)ccc2c1C(=O)c1ccccc1C2=O
IC50 [6]: 18.5 µM (active)

CC1=C(C)/C(=N\OS(=O)(=O)c2ccc(C)cc2)C=CC1=O
EC50 [7]: 35.2 µM (active) | EC50 [8]: 37.6 µM (active) | IC50 [9]: 5.11 µM (active) | AC50 [10]: 1.61 µM (active) | AC50 (INS1): 2.15 µM (active) | IC50 [11]: 3.42 µM (active) | IC50 (Beta Lactamase): 31 µM (inactive)

OCC1(Cc2ccc(Cl)cc2)CCN(CCCc2ccccc2)CC1
EC50 (Mu-type opioid receptor): 92.5 µM (inactive) | EC50 [12]: 76.1 µM (inactive)

CCc1cccc2c(C(=O)COC(=O)c3cnc(C)cn3)c[nH]c12
AC50 [13]: 20 µM (active)

Cc1cc(C)n2c(Nc3c(C)cccc3C)c(CCc3ccccc3)nc2n1
AC50 (Vero): 33.3 µM (active)

CCNC1CCC(Nc2ccnc3cc(Cl)ccc23)CC1 (centres undefined)
AC50 [14]: 25.9 µM (active) | AC50 [15]: 7.52 µM (active)

Clc1cccc(Cl)c1CONC=Nc1ncnc2sccc12
EC50 (HEK293 [16]): > 20 µM (inactive) | IC50 (HEK293 [17]): 7.79 µM (active) | IC50 (HEK293 [18]): > 20 µM (inactive) | IC50 (HEK293 [19]): 8.22 µM (active) | IC50 [20]: 30.3 µM (inactive) | IC50 [21]: 12.3 µM (inactive)

CNc1ccccc1C(C)(C)c1cc(-c2ccc(F)cc2)no1
IC50 (Galanin receptor type 3): 3.74 µM (active) | EC50 (cells): > 29.9 µM (inactive)

CCOC(=O)C1CCCN(c2c(C(=O)c3ccccc3)cnc3ccc(OC)cc23)C1 (centres undefined)
EC50 [22]: > 29.9 µM (inactive) | IC50 [23]: 4.06 µM (active) | IC50 [24]: > 29.9 µM (inactive) | EC50 [25]: 11.6 µM (inactive)

CC(C)(C)c1ccc(OCC(=O)Nc2ccc(-c3nc4cccnc4o3)cc2)cc1
EC50 [26]: 19.9 nM (active) | EC50 [27]: 67.2 nM (active)
